Test results taken from ChEMBL document CHEMBL1201862, “PubChem BioAssay data set” (2004).
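Briefly, cells in 96-well plates were exposed to five compound concentrations for 48 h, and endpoints were estimated by linear interpolation. Abbreviation: GI50, concentration required for 50% inhibition of growth.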 Active and inactive are the calls of the source. Rule as the data show it: active = GI50 up to about 1.1 µM and inactive = higher.

Legend:
Test in all cases: NCI-60 cell line screen, 48 h
SK-MEL-28 = system: SK-MEL-28
CAKI-1 = system: CAKI-1
ACHN = system: ACHN
A498 = system: A498
SF-268 = system: SF-268
M14 = system: M14
OVCAR-3 = system: OVCAR-3
SK-MEL-5 = system: SK-MEL-5
HOP-62 = system: HOP-62
U-251 = system: U-251
HCT-116 = system: HCT-116
TK-10 = system: TK-10
786-0 = system: 786-0
LOX IMVI = system: LOX IMVI
HCC 2998 = system: HCC 2998
SK-OV-3 = system: SK-OV-3

Measured: GI50

CCC1(CN(C)C)CC/C(=C\c2ccc3c(c2)OCO3)C1=O (configuration not stated)
inactive: SK-MEL-28 > 100 µM | CAKI-1 > 100 µM | ACHN > 100 µM | A498 > 100 µM | SF-268 > 100 µM | M14 > 100 µM | OVCAR-3 > 100 µM | SK-MEL-5 62.5 µM | HOP-62 > 100 µM | U-251 > 100 µM | HCT-116 > 100 µM | TK-10 > 100 µM | 786-0 > 100 µM | LOX IMVI > 100 µM | HCC 2998 > 100 µM

COC(=O)c1ccc(/C=C/S(=O)(=O)c2ccccc2)cc1
inactive: SK-MEL-28 44.9 µM | CAKI-1 > 100 µM | ACHN > 100 µM | A498 > 100 µM | SF-268 > 100 µM | M14 > 100 µM | OVCAR-3 > 100 µM | SK-MEL-5 > 100 µM | HOP-62 > 100 µM | U-251 > 100 µM | HCT-116 > 100 µM | TK-10 > 100 µM | 786-0 > 100 µM | LOX IMVI > 100 µM | SK-OV-3 > 100 µM

N#Cc1ccccc1C(Cl)(Cl)c1cnccn1
inactive: SK-MEL-28 51.2 µM | CAKI-1 > 100 µM | ACHN 59.6 µM | A498 92.7 µM | SF-268 52.5 µM | SK-MEL-5 20.4 µM | HOP-62 72.4 µM | U-251 34.8 µM | TK-10 > 100 µM | 786-0 14.6 µM | LOX IMVI 24.2 µM | HCC 2998 32.4 µM | SK-OV-3 61.1 µM

COC(=O)c1ccc2n[se]nc2c1
inactive: SK-MEL-28 > 100 µM | CAKI-1 > 100 µM | ACHN > 100 µM | A498 > 100 µM | SF-268 > 100 µM | M14 > 100 µM | SK-MEL-5 > 100 µM | HOP-62 > 100 µM | U-251 > 100 µM | HCT-116 > 100 µM | TK-10 > 100 µM | 786-0 > 100 µM | LOX IMVI > 100 µM | HCC 2998 > 100 µM | SK-OV-3 > 100 µM

CC1C=C[C@H](Sc2ccccc2)CC[C@@]1(C)O (some centres not stated)
inactive: SK-MEL-28 > 100 µM | CAKI-1 > 100 µM | ACHN > 100 µM | A498 > 100 µM | M14 > 100 µM | SK-MEL-5 59.4 µM | HOP-62 > 100 µM | U-251 > 100 µM | HCT-116 97.3 µM | TK-10 > 100 µM | 786-0 > 100 µM | LOX IMVI > 100 µM | HCC 2998 > 100 µM | SK-OV-3 > 100 µM

COC(=O)C1[C@@H](C(=O)OC)C12C=Cc1ccccc1C=C2 (some centres not stated)
inactive: SK-MEL-28 > 100 µM | ACHN > 100 µM | A498 38.5 µM | SF-268 > 100 µM | M14 > 100 µM | OVCAR-3 > 100 µM | SK-MEL-5 > 100 µM | HOP-62 > 100 µM | U-251 > 100 µM | HCT-116 > 100 µM | TK-10 > 100 µM | 786-0 > 100 µM | LOX IMVI > 100 µM | HCC 2998 > 100 µM | SK-OV-3 > 100 µM

O=C(Nc1ccccc1SC(/C=C/NNC1=NN=C(c2ccccc2)C(c2ccccc2)N1)c1ccccc1)c1ccc(Cl)cc1Cl (configuration not stated)
inactive: SK-MEL-28 38.8 µM | ACHN 82.8 µM | A498 43.5 µM | SF-268 35.6 µM | OVCAR-3 44.5 µM | SK-MEL-5 42.8 µM | HOP-62 27.3 µM | U-251 25.6 µM | TK-10 > 100 µM | 786-0 37.9 µM | LOX IMVI 36.2 µM | HCC 2998 47 µM | SK-OV-3 49.3 µM

Cc1ccc(S(=O)(=O)NC2(C=O)CCCC3CCCCC32)cc1 (configuration not stated)
inactive: SK-MEL-28 > 100 µM | CAKI-1 > 100 µM | ACHN > 100 µM | A498 > 100 µM | SF-268 > 100 µM | M14 > 100 µM | OVCAR-3 > 100 µM | SK-MEL-5 > 100 µM | HOP-62 > 100 µM | U-251 > 100 µM | HCT-116 > 100 µM | TK-10 > 100 µM | 786-0 > 100 µM | HCC 2998 > 100 µM | SK-OV-3 > 100 µM

CCN1CCC(O)(/C=C/c2ccccc2)C(C(=O)/C=C/c2ccccc2)C1 (configuration not stated)
inactive: SK-MEL-28 1.89 µM | CAKI-1 2.71 µM | ACHN 1.72 µM | A498 6.21 µM | SF-268 2.54 µM | M14 2.09 µM | OVCAR-3 3.1 µM | SK-MEL-5 3.22 µM | HOP-62 13.9 µM | U-251 2.15 µM | HCT-116 1.63 µM | TK-10 2.61 µM | 786-0 1.75 µM | HCC 2998 1.96 µM | SK-OV-3 7.85 µM

COC(=O)C1=C(C)N(NC(=O)Nc2ccccc2)C2(N)N(NC(=O)Nc3ccccc3)C(C)=C(C(=O)OC)C12C(=O)OC (configuration not stated)
inactive: SK-MEL-28 > 100 µM | CAKI-1 23.7 µM | ACHN 98.2 µM | A498 59.6 µM | SF-268 > 100 µM | M14 47.5 µM | OVCAR-3 54.2 µM | U-251 43.3 µM | HCT-116 > 100 µM | TK-10 69.3 µM | 786-0 66.7 µM | LOX IMVI 72.6 µM | HCC 2998 39.4 µM | SK-OV-3 > 100 µM

C[C@]12CCC(=O)C=C1CC[C@@H]1C2CC[C@]2(C)NC(=O)C(C#N)CC12 (some centres not stated)
inactive: SK-MEL-28 > 100 µM | CAKI-1 > 100 µM | ACHN > 100 µM | A498 > 100 µM | M14 > 100 µM | OVCAR-3 > 100 µM | SK-MEL-5 > 100 µM | HOP-62 39.6 µM | U-251 > 100 µM | HCT-116 > 100 µM | TK-10 > 100 µM | 786-0 > 100 µM | HCC 2998 > 100 µM | SK-OV-3 > 100 µM

CC1CCC(=O)C(C(O)CC2CC(=O)N(c3ccccc3)C(=O)C2)C1 (configuration not stated)
inactive: SK-MEL-28 > 100 µM | CAKI-1 > 100 µM | ACHN > 100 µM | A498 > 100 µM | SF-268 > 100 µM | M14 > 100 µM | OVCAR-3 > 100 µM | HOP-62 > 100 µM | U-251 > 100 µM | HCT-116 > 100 µM | TK-10 > 100 µM | 786-0 > 100 µM | LOX IMVI > 100 µM | HCC 2998 > 100 µM | SK-OV-3 > 100 µM

O=C1NC(=O)C(C(=O)C(=O)Nc2cc(Cl)ccc2Cl)C(=O)N1
inactive: SK-MEL-28 > 100 µM | ACHN > 100 µM | A498 > 100 µM | SF-268 > 100 µM | M14 > 100 µM | OVCAR-3 > 100 µM | SK-MEL-5 > 100 µM | HOP-62 > 100 µM | U-251 > 100 µM | HCT-116 > 100 µM | TK-10 > 100 µM | 786-0 > 100 µM | HCC 2998 > 100 µM | SK-OV-3 > 100 µM
